This assay addresses T1, KRAS^G12D protein (Homo sapiens, UniProt P01116, G12D).
T1 construct: host or cells: Aspc-1 (AsPC-1) cells
Kind of assay: Protein degradation study (western blot) in Aspc-1 cells. The class given is cell-based. Particulars: for inhibition at 0.005 µM / inhibition at 0.05 µM / inhibition at 0.1 µM / inhibition at 1 µM / inhibition at 0.001 µM: ASPC1, 24 h, 24 hours; for inhibition at 0.005 µM: Aspc-1 cells treated with 0.005 μM compound; for inhibition at 0.005 µM / inhibition at 0.05 µM / inhibition at 0.001 µM: read-out: Rate of degradation; for inhibition at 0.05 µM: Aspc-1 cells treated with 50 nM compound; for DC50: Aspc-1 cells, half-maximum degradation concentration, read-out: DC50 of compounds induced Ras G12D protein degradation; for inhibition at 0.1 µM: Aspc-1 cells treated with 0.1 μM compound; for inhibition at 0.1 µM / inhibition at 1 µM: read-out: Rate of protein degradation; for inhibition at 1 µM: Aspc-1 cells treated with 1 μM compound; for inhibition at 0.001 µM: Aspc-1 cells treated with 1 nM compound. The method, then: Aspc-1 (Cobioer, CBP60546) cells in exponential growth phase were inoculated on a 6-well cell culture plate (Corning, 3516) at density of 1E6/well; and cells in the plate were cultured in 37° C. incubator containing 5%-carbon dioxide. The next day, testing compounds were dissolved in DMSO (Sigma, RNBF5902) for the preparation of a 10-mM concentration stock solution. The stock solution was diluted with complete medium (RPMI-1640 supplemented with 10% fetal bovine serum, 1% penicillin-streptomycin), yielding working solutions of various concentrations. The plate, after the addition of compounds, was placed in a 5% carbon dioxide incubator, and incubated at 37° C. for 24 hours (final DMSO concentration was 0.1%). The plate was then removed from the incubator, and the cells were washed twice with precooled PBS (Gibco, 14190250), followed by addition of 80-μL RIPA lysis buffer (containing protease inhibitor (Invitrogen™, AM2696)) to each well. The adherent cells were scraped off with a cell scraper, and the cell lysate was transferred to a 1.5-mL centrifuge tube followed with a 30-minute incubation on ice. The lysate was then clarified with centrifugation at 14000 rpm for 10 min at 4° C. The supernatant was transferred into a new 1.5-mL centrifuge tube, and protein concentration was measured with BCA protein detection kit (Thermo Fisher, 23225). G12D protein level was assessed by western blot.
A mixture of cell lysate (40 μL) and loading buffer (10 μL, 5×SDS (Beyotime, P0015L)) was denatured in a water-bath at 95° C. for 10 min. The denatured protein sample, at 30 μL/well, was loaded into corresponding well of 4-20% Bis-Tris gel (Kingsley, M00656). Protein samples were initially electrophoresed at 80 V for 30 minutes, followed by 120 V for 40 minutes, until the bromophenol blue strip ran to an appropriate position. After electrophoresis, iBlot2 (Life Technologies, IB21001) was used to transfer the separated samples onto PVDF film. The PVDF membrane was washed with double-distilled water and then blocked in TBST (Thermo Scientific, 28360) buffer containing 5% non-fat milk, for 2 hours. Blocked membrane was rinsed with tris-buffered saline tween-20 (Thermo Scientific, 28360, TBST) three times, 10 minutes each. Membrane was then incubated with 1:1000 diluted KRAS primary antibody (CST, cat #14429S) overnight at 4° C. Membrane was rinsed in a way described previously followed by 1 hour incubation of secondary antibody at room temperature. After washing the film for three times with TBST, ECL color developing solution was applied, and image was captured with Biorad Chemi Doc gel imager. The band gray value was quantified (Image Lab), and protein degradation level was calculated according to the following formula:
Level of RAS protein expression=(RAS-compound/GAPDH)/(RAS-DMSO/GAPDH)
Level of degradation (%)=(1−Rate of RAS protein expression)×100
Symbols of −, +, ++, +++ indicate that the degradation level of Ras protein induced by testing compounds are […], 11 to 30%, 31 to 60% and greater than 60%, respectively.
Half-maximum degradation concentrations (DC50s) of testing compounds were calculated using GraphPad Prism and their values were shown in Table 6. Symbols of […] represent DC50s equal or less than 10 nM, 11-50 nM, 51-100 nM, and 101-200 nM, respectively.

This passage reports inhibition and DC50 results from US20240059712A1, “BIFUNCTIONAL COMPOUNDS AND PHARMACEUTICAL USES THEREOF” (priority 2022, published 2024).

Each structure is given as a SMILES string.

T1 sequence (P01116 1-188 isoform P01116-2 G12D): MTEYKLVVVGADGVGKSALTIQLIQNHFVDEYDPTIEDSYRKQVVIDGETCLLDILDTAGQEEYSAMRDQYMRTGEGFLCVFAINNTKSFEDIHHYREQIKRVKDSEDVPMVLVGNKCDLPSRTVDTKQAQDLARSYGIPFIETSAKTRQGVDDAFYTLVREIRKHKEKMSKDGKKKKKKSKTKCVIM

As for `C#Cc1c(F)ccc2cc(O)cc(-c3ncc4c(N5CC6CCC(C5)N6)nc(OCC5(CN6CCC7(CC6)CC(N6CCC(c8ccc(CN9CCC(=O)NC9=O)cc8)CC6)C7)CC5)nc4c3F)c12` [Compound 38a], the inhibition at 0.005 µM was 11 to 30%.
As to `C#Cc1c(F)ccc2cc(O)cc(-c3ncc4c(N5CC6CCC(C5)N6)nc(OCC5(CN6CCC7(CC6)CC(N6CCC(c8ccc(NC9%10CC(C9)C(=O)NC%10=O)cc8F)CC6)C7)CC5)nc4c3F)c12` [Compound 36a], the inhibition at 0.005 µM is above 60%, the inhibition at 0.05 µM is above 60% and the DC50 was below 10 nM.
With `C#Cc1c(F)ccc2cc(O)cc(-c3ncc4c(N5CC6CCC(C5)N6)nc(OCCCN5CCN(CCC(=O)N6CCC(c7ccc8c(C9CCC(=O)NC9=O)nn(C)c8c7)CC6)CC5)nc4c3F)c12` (stereo not shown) [Compound 74], the inhibition at 0.1 µM is 31 to 60%.
Take `C#Cc1c(F)ccc2cc(O)cc(-c3ncc4c(N5CC6CCC(C5)N6)nc(OC5CCN(CCCCCCCCCCC(=O)N[C@H](C(=O)N6C[C@H](O)C[C@H]6C(=O)N[C@@H](C)c6ccc(-c7scnc7C)cc6)C(C)(C)C)CC5)nc4c3F)c12` [Compound 45]: the DC50 was 11 to 50 nM.
Regarding `C#Cc1c(F)ccc2cc(O)cc(-c3ncc4c(N5CC6CCC(C5)N6)nc(OCCCN5CCC(C(=O)N6CCN(C(=O)C[C@H](NC(=O)[C@@H]7C[C@@H](O)CN7C(=O)[C@@H](NC(=O)C7(F)CC7)C(C)(C)C)c7ccc(-c8scnc8C)cc7)CC6)CC5)nc4c3F)c12` [Compound 65], the inhibition at 1 µM is 11 to 30%.
Turning to `C#Cc1c(F)ccc2cc(O)cc(-c3ncc4c(N5CC6CCC(C5)N6)nc(OCC5(CN6CCC(N7CC(N8CCC(c9ccc%10c(C%11CCC(=O)NC%11=O)nn(C)c%10c9)CC8)C7)CC6)CC5)nc4c3F)c12` (stereo not shown) [Compound 34a], the inhibition at 0.005 µM fell in the range of 31 to 60% and the inhibition at 0.05 µM was above 60%.
As to `C#Cc1c(F)ccc2cc(O)cc(-c3ncc4c(N5CC6CCC(C5)N6)nc(OC5CCN(CC(=O)N6CCC7(CC6)CC(N6CCC(c8ccc9c(C%10CCC(=O)NC%10=O)nn(C)c9c8)CC6)C7)C5)nc4c3F)c12` (stereo not shown) [Compound 101], the inhibition at 0.1 µM is 11 to 30%.
Take `C#Cc1c(F)ccc2cc(O)cc(-c3ncc4c(N5CC6CCC(C5)N6)nc(OC5CCN(CCCCCCCCCCC(=O)N[C@H](C(=O)N6C[C@H](O)C[C@H]6C(=O)NCc6ccc(-c7scnc7C)cc6)C(C)(C)C)CC5)nc4c3F)c12` [Compound 43]: the DC50 is 51 to 100 nM.
Regarding `C#Cc1c(F)ccc2cc(O)cc(-c3ncc4c(N5CC6CCC(C5)N6)nc(N5CC(N6CCN(C(=O)CN7CCC(c8ccc9c(C%10CCC(=O)NC%10=O)nn(C)c9c8)CC7)CC6)C5)nc4c3F)c12` (stereo not shown) [Compound 120], the inhibition at 0.1 µM lay in the range of 11 to 30%.
`C#Cc1c(F)ccc2cc(O)cc(-c3ncc4c(N5CC6CCC(C5)N6)nc(OCC5(CN6CCC7(CC6)CC(N6CCC(c8cc9c(cc8F)c(C8CCC(=O)NC8=O)nn9C)CC6)C7)CC5)nc4c3F)c12` (stereo not shown) [Compound 41a]: the inhibition at 0.005 µM is above 60% and the inhibition at 0.05 µM is above 60%.
Take `C#Cc1c(F)ccc2cc(O)cc(-c3ncc4c(N5CC6CCC(C5)N6)nc(OCC5(CN6CCC(CN7CCC(c8cccc(N9CC(=O)NC9=O)c8)CC7)CC6)CC5)nc4c3F)c12` [Compound 7a]: the inhibition at 0.001 µM lay in the range of 11 to 30%.
`C#Cc1c(F)ccc2cc(O)cc(-c3ncc4c(N5CC6CCC(C5)N6)nc(OCCCN5CCN(C(=O)CN6CCC(c7ccc8c(C9CCC(=O)NC9=O)nn(C)c8c7)CC6)CC5)nc4c3F)c12` (stereo not shown) [Compound 33]: the DC50 fell in the range of 11 to 50 nM.
Take `C#Cc1c(F)ccc2cc(O)cc(-c3ncc4c(N5CC6CCC(C5)N6)nc(OC5CCN(CC6CCN(C(=O)C[C@H](NC(=O)[C@@H]7C[C@@H](O)CN7C(=O)[C@@H](NC(=O)C7(F)CC7)C(C)(C)C)c7ccc(-c8scnc8C)cc7)CC6)CC5)nc4c3F)c12` [Compound 70]: the inhibition at 0.1 µM lay within 11 to 30% and the inhibition at 1 µM is above 60%.
Regarding `C#Cc1c(F)ccc2cc(O)cc(-c3ncc4c(N5CC6CCC(C5)N6)nc(OCC5(CN6CCC(CN7CCC(c8cccc(N9CCC(=O)NC9=O)c8C)CC7)CC6)CC5)nc4c3F)c12` [Compound 8a], the inhibition at 0.001 µM is 11 to 30%.
For the compound `Nc1cc(Cl)c(C(F)(F)F)c(-c2ncc3c(N4CC5CCC(C4)N5)nc(OCC4(CN5CCC6(CC5)CC(N5CCC(c7cccc(N8CCC(=O)NC8=O)c7)CC5)C6)CC4)nc3c2F)c1` [Compound 19a], the inhibition at 0.005 µM is 11 to 30% and the inhibition at 0.05 µM lay within 11 to 30%.
Turning to `C#Cc1c(F)ccc2cc(O)cc(-c3ncc4c(N5CC6CCC(C5)N6)nc(OC5CCN(CCCCCCCCCCC(=O)N[C@H](C(=O)N6C[C@H](O)C[C@H]6C(=O)N[C@@H](C)c6ccc(-c7scnc7C)cc6)C(C)(C)C)C5)nc4c3F)c12` (stereo partly shown) [Compound 55], the DC50 was 51 to 100 nM.
As to `C#Cc1c(F)ccc2cc(O)cc(-c3ncc4c(N5CC6CCC(C5)N6)nc(OCC5(CN6CCC(C(=O)N7CCC(c8ccc9c(C%10CCC(=O)NC%10=O)nn(C)c9c8)CC7)CC6)CC5)nc4c3F)c12` (stereo not shown) [Compound 100], the inhibition at 0.1 µM was above 60%.
As for `C#Cc1c(F)ccc2cc(O)cc(-c3ncc4c(N5CC6CCC(C5)N6)nc(OCC5CCN(CCCCCCCCCCC(=O)N[C@H](C(=O)N6C[C@H](O)C[C@H]6C(=O)N[C@@H](C)c6ccc(-c7scnc7C)cc6)C(C)(C)C)C5)nc4c3F)c12` (stereo partly shown) [Compound 56], the DC50 fell in the range of 11 to 50 nM.
Take `C#Cc1c(F)ccc2cc(O)cc(-c3ncc4c(N5CC6CCC(C5)N6)nc(OCC5(CN6CC7(CC(CN8CCC(c9ccc%10c(C%11CCC(=O)NC%11=O)nn(C)c%10c9)CC8)C7)C6)CC5)nc4c3F)c12` (stereo not shown) [Compound 25a]: the inhibition at 0.005 µM is 31 to 60% and the inhibition at 0.05 µM lay in the range of 31 to 60%.
In the case of `C#Cc1c(F)ccc2cccc(-c3ncc4c(N5CC6CCC(C5)N6)nc(OCC5(CN6CCC7(CC6)CC(N6CCC(c8ccc(NC9CCC(=O)NC9=O)cc8F)CC6)C7)CC5)nc4c3F)c12` (stereo not shown) [Compound 22a], the inhibition at 0.005 µM fell in the range of 11 to 30% and the inhibition at 0.05 µM lay within 31 to 60%.
The matching figures for `C#Cc1c(F)ccc2cc(O)cc(-c3ncc4c(N5CC6CCC(C5)N6)nc(OCC5(CN6CC7(CC(C(=O)N8CCC(c9ccc%10c(C%11CCC(=O)NC%11=O)nn(C)c%10c9)CC8)C7)C6)CC5)nc4c3F)c12` (stereo not shown) [Compound 27a]: 11 to 30% and 11 to 30%.
On to `C#Cc1c(F)ccc2cc(O)cc(-c3ncc4c(N5CC6CCC(C5)N6)nc(OC5CCN(CC(=O)N6CCC(c7ccc8c(C9CCC(=O)NC9=O)nn(C)c8c7)CC6)CC5)nc4c3F)c12` (stereo not shown) [Compound 69], for which the inhibition at 0.1 µM is above 60% and the inhibition at 1 µM is above 60%.
Take `C#Cc1c(F)ccc2cc(O)cc(-c3ncc4c(N5CC6CCC(C5)N6)nc(OCC5(CN6CCC7(CC6)CC(c6cc8c(cc6F)c(N6CCC(=O)NC6=O)nn8C)C7)CC5)nc4c3F)c12` [Compound 39a]: the inhibition at 0.005 µM was above 60% and the DC50 is below 10 nM.
As for `C#Cc1c(F)ccc2cc(O)cc(-c3ncc4c(N5CC6CCC(C5)N6)nc(OCC5(CN6CCC(c7ccc8c(C9CCC(=O)NC9=O)nn(C)c8c7)CC6)CC5)nc4c3F)c12` (stereo not shown) [Compound 99], the inhibition at 0.1 µM was above 60%.
For the compound `Cc1ccc2[nH]ncc2c1-c1ncc2c(N3CC4CCC(C3)N4)nc(OCC3(CN4CCC5(CC4)CC(N4CCC(c6ccc7c8c(cccc68)C(=O)N7C6CCC(=O)NC6=O)CC4)C5)CC3)nc2c1F` (stereo not shown) [Compound 18a], the inhibition at 0.005 µM is 11 to 30%.
Take `C#Cc1c(F)ccc2cc(O)cc(-c3ncc4c(N5CC6CCC(C5)N6)nc(OCC5CCN(CCCCCCCCCCC(=O)N6CCC(c7ccc8c(C9CCC(=O)NC9=O)nn(C)c8c7)CC6)C5)nc4c3F)c12` (stereo not shown) [Compound 57]: the DC50 was below 10 nM.
